Test results reported in patent US10800792B2, “Inhibitors of Bruton's tyrosine kinase and method of their use” (JANSSEN PHARMACEUTICA NV, priority 2015, dated 2020).

These compounds were tested against unphosphorylated-BTK kinase domain (UP-BTK), GST-tagged human BTK (389-659aa) (Homo sapiens (Human), UniProt Q06187) (assay: BTK kinase Lanthascreen binding assay). Conditions: Lanthascreen tracer competition, 60 minutes incubation; pIC50 = negative log of the IC50 in molar.
Description: BTK Kinase Lanthascreen Binding Assay:
A BTK kinase lanthascreen binding assay monitors compound binding to unphosphorylated-BTK kinase domain (UP-BTK), by competing with a fluorescent labeled tracer. […] Data were analyzed using Xlfit™ version 5.3 from ID Business Solutions (Guildford), Microsoft Excel add-in. pIC50 refers to the negative log of the IC50 in molar

Chain of unphosphorylated-BTK kinase domain (UP-BTK), GST-tagged human BTK (389-659aa) (Q06187 389-659): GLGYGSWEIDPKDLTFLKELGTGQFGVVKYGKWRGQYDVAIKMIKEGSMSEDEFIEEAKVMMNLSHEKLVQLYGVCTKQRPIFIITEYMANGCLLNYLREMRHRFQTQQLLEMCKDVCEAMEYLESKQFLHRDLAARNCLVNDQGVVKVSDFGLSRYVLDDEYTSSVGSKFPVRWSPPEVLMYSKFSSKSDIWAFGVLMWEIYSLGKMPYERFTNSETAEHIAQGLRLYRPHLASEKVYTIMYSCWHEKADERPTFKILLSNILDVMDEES

Row | SMILES | BTK_I_binding pIC50
1 | Cc1cc(Oc2ccccc2)ccc1N1C(=O)Nc2c(C(=O)N[C@H]3CCCN(C#N)C3)sc3nccc1c23 [Example 887, (S)—N-(1-Cyanopiperidin-3-yl)-5-(2-methyl-4-phenoxyphenyl)-4-oxo-4,5-dihydro-3H-1-thia-3,5,8-triazaacenaphthylene-2-carboxamide] | 7.0
2 | C=CC(=O)N1CCC[C@@H](NC(=O)c2sc3nccc4c3c2NC(=O)N4c2ccc(O[C@H]3CCOC3)cc2C)C1 [Example 785, N—((R)-1-Acryloylpiperidin-3-yl)-5-(2-methyl-4-(((S)-tetrahydrofuran-3-yl)oxy)phenyl)-4-oxo-4,5-dihydro-3H-1-thia-3,5,8-triazaacenaphthylene-2-carboxamide] | 7.1
3 | CC(C)(C)OC(=O)N1CCC[C@@H](NC(=O)c2sc3nccc4c3c2NC(=O)N4c2ccc(Oc3ccccc3)cc2)C1 [Example 628, (R)-tert-Butyl 3-(4-oxo-5-(4-phenoxyphenyl)-4,5-dihydro-3H-1-thia-3,5,8-triazaacenaphthylene-2-carboxamido)piperidine-1-carboxylate] | 5.8
4 | Cc1cc(Oc2ccccc2)ccc1N1C(=O)Nc2c(C(=O)N[C@@H]3CCN(C(=O)CC#N)C3)sc3nccc1c23 [Example 838, (R)—N-(1-(2-Cyanoacetyl)pyrrolidin-3-yl)-5-(2-methyl-4-phenoxyphenyl)-4-oxo-4,5-dihydro-3H-1-thia-3,5,8-triazaacenaphthylene-2-carboxamide] | 7.9
5 | C=CC(=O)N1CCC[C@@H](NC(=O)c2sc3nccc4c3c2NC(=O)N4c2cnc(Oc3ccccc3)cc2C)C1 [Example 667, (R)—N-(1-Acryloylpiperidin-3-yl)-5-(4-methyl-6-phenoxypyridin-3-yl)-4-oxo-4,5-dihydro-3H-1-thia-3,5,8-triazaacenaphthylene-2-carboxamide] | 7.9
6 | C=CC(=O)N1CC[C@@H](NC(=O)c2sc3nccc4c3c2NC(=O)N4c2cnc(Oc3ccccc3)cc2C)C1 (single isomer, unassigned) [Example 663, (R)—N-(1-Acryloylpyrrolidin-3-yl)-5-(*S)-(4-methyl-6-phenoxypyridin-3-yl)-4-oxo-4,5-dihydro-3H-1-thia-3,5,8-triazaacenaphthylene-2-carboxamide] | 8.0
7 | C=CC(=O)N1CC[C@@H](NC(=O)c2sc3nccc4c3c2NC(=O)N4c2cnc(Oc3ccccc3)nc2C)C1 (single isomer, unassigned) [Example 664, (R)—N-(1-Acryloylpyrrolidin-3-yl)-5-(*S)-(4-methyl-2-phenoxypyrimidin-5-yl)-4-oxo-4,5-dihydro-3H-1-thia-3,5,8-triazaacenaphthylene-2-carboxamide] | 7.6
8 | CN[C@@H](C)C(=O)N1CCC[C@@H](NC(=O)c2sc3nccc4c3c2NC(=O)N4c2ccc(Oc3ccccc3)cc2C)C1 [Example 853, 5-(2-Methyl-4-phenoxyphenyl)-N—((R)-1-((S)-2-(methylamino)propanol)piperidin-3-yl)-4-oxo-4,5-dihydro-3H-1-thia-3,5,8-triazaacenaphthylene-2-carboxamide] | 7.5

Same assay, conditions: pIC50 = negative log of the IC50 in molar; 60 minutes incubation, 50 nM Tracer 236

Row | SMILES | BTK_I_binding pIC50
9 | Cc1cc(Oc2ccccc2)ccc1N1C(=O)Nc2c(C(=O)NC3CN(C)C3)sc3nccc1c23 [Example 248, 5-(2-Methyl-4-phenoxyphenyl)-N-(1-methylazetidin-3-yl)-4-oxo-4,5-dihydro-3H-1-thia-3,5,8-triazaacenaphthylene-2-carboxamide] | 6.5
10 | Cc1cc(Oc2ccccc2)ccc1N1C(=O)Nc2c(C(=O)NC3CN(C(=O)/C(C#N)=C/C4CC4)C3)sc3nccc1c23 [Example 229, (E)-N-(1-(2-Cyano-3-cyclopropylacryloyl)azetidin-3-yl)-5-(2-methyl-4-phenoxyphenyl)-4-oxo-4,5-dihydro-3H-1-thia-3,5,8-triazaacenaphthylene-2-carboxamide] | 6.7
11 | Cc1cc(Oc2cccc(F)c2)ccc1N1C(=O)Nc2c(C(=O)N[C@@H]3CCCN(C)C3)sc3nccc1c23 [Example 214, (R)-5-(4-(3-Fluorophenoxy)-2-methylphenyl)-N-(1-methylpiperidin-3-yl)-4-oxo-4,5-dihydro-3H-1-thia-3,5,8-triazaacenaphthylene-2-carboxamide] | 6.8
12 | Cc1cc(Oc2ccccc2)ccc1N1C(=O)Nc2c(C(=O)NC3CCCCN(C#N)C3)sc3nccc1c23 (stereo not shown) [Example 97, N-(1-Cyanoazepan-3-yl)-5-(2-methyl-4-phenoxyphenyl)-4-oxo-4,5-dihydro-3H-1-thia-3,5,8-triazaacenaphthylene-2-carboxamide] | 6.9
13 | C=CC(=O)N1CCC[C@@H](NC(=O)c2sc3nccc4c3c2NC(=O)N4c2ccc(Oc3c(F)cccc3F)cc2C)C1 [Example 64, (R)—N-(1-Acryloylpiperidin-3-yl)-5-(4-(2,6-difluorophenoxy)-2-methylphenyl)-4-oxo-4,5-dihydro-3H-1-thia-3,5,8-triazaacenaphthylene-2-carboxamide] | 7.6
14 | Cc1cc(Oc2cccc(COc3ccccc3C#N)c2)ccc1N1C(=O)Nc2c(C(=O)N[C@@H]3CCCN(C)C3)sc3nccc1c23 (mixture of isomers) [Example 24, (R)-5-(4-(3-((2-Cyanophenoxy)methyl)phenoxy)-2-methylphenyl)-N-(1-methylpiperidin-3-yl)-4-oxo-4,5-dihydro-3H-1-thia-3,5,8-triazaacenaphthylene-2-carboxamide] | 7.7
15 | Cc1cc(Oc2ccccc2)ccc1N1C(=O)Nc2c(C(=O)N[C@H]3CNC[C@@H](O)C3)sc3nccc1c23 [Example 197, N-((3R,5S)-5-Hydroxypiperidin-3-yl)-5-(2-methyl-4-phenoxyphenyl)-4-oxo-4,5-dihydro-3H-1-thia-3,5,8-triazaacenaphthylene-2-carboxamide] | 6.8
16 | N#C/C(=C\C1CC1)C(=O)N1CCC[C@@H](NC(=O)c2sc3nccc4c3c2NC(=O)N4c2c(F)cc(Oc3ccccc3)cc2F)C1 [Example 175, (R,E)-N-(1-(2-Cyano-3-cyclopropylacryloyl)piperidin-3-yl)-5-(2,6-difluoro-4-phenoxyphenyl)-4-oxo-4,5-dihydro-3H-1-thia-3,5,8-triazaacenaphthylene-2-carboxamide] | 7.6

Same assay, conditions: pIC50 = negative log of the IC50 in molar; 60 minutes incubation, 50 nM Tracer 236; read-out: BTK_I_binding pIC50 (converted)

Row | SMILES | IC50 [nM]
17 | C=CC(=O)N1CCC[C@@H](NC(=O)c2sc3nccc4c3c2NC(=O)N4c2ccc(OC3CCCCC3)cc2C)C1 [Example 32, (R)—N-(1-Acryloylpiperidin-3-yl)-5-(4-(cyclohexyloxy)-2-methylphenyl)-4-oxo-4,5-dihydro-3H-1-thia-3,5,8-triazaacenaphthylene-2-carboxamide] | 50.1

Same assay, conditions: unphosphorylated-BTK kinase domain, 50 nM Tracer 236, 60 minutes; pIC50 = negative log of the IC50 in molar

Row | SMILES | BTK_I_binding pIC50
18 | CC(C)N1C(=O)Nc2c(C(=O)N[C@@H]3CCCNC3)sc3nccc1c23 [Example 361, (R)-5-Isopropyl-4-oxo-N-(piperidin-3-yl)-4,5-dihydro-3H-1-thia-3,5,8-triazaacenaphthylene-2-carboxamide] | <5
19 | Cc1cc(Oc2ccccc2)nnc1N1C(=O)Nc2c(C(=O)N[C@@H]3CCCN(C)C3)sc3nccc1c23 [Example 350, (R)-5-(4-Methyl-6-phenoxypyridazin-3-yl)-N-(1-methylpiperidin-3-yl)-4-oxo-4,5-dihydro-3H-1-thia-3,5,8-triazaacenaphthylene-2-carboxamide] | <5
20 | CN1CCC[C@@H](NC(=O)c2sc3nccc4c3c2NC(=O)N4c2ccc(Oc3ccccc3)cc2C(F)(F)F)C1 [Example 349, (R)—N-(1-Methylpiperidin-3-yl)-4-oxo-5-(4-phenoxy-2-(trifluoromethyl)phenyl)-4,5-dihydro-3H-1-thia-3,5,8-triazaacenaphthylene-2-carboxamide] | <5
21 | Cc1cc(Oc2ccccc2)ccc1N1C(=O)Nc2c(C(=O)N[C@@H]3CCCN(C(=O)/C(Cl)=C/CN)C3)sc3nccc1c23 [Example 550, (R,Z)—N-(1-(4-Amino-2-chlorobut-2-enoyl)piperidin-3-yl)-5-(2-methyl-4-phenoxyphenyl)-4-oxo-4,5-dihydro-3H-1-thia-3,5,8-triazaacenaphthylene-2-carboxamide] | 7.3
22 | C=CC(=O)N1CCC[C@@H](NC(=O)c2sc3nccc4c3c2NC(=O)N4c2cccc(OC(C)C)c2)C1 [Example 565, (R)—N-(1-Acryloylpiperidin-3-yl)-5-(3-isopropoxyphenyl)-4-oxo-4,5-dihydro-3H-1-thia-3,5,8-triazaacenaphthylene-2-carboxamide] | 7.0
23 | Cc1cc(Oc2ccccc2)ccc1N1C(=O)Nc2c(C(=O)N[C@@H]3CCCN(C(=O)C(=CC4CC4)C(F)(F)F)C3)sc3nccc1c23 (mixture of isomers) [Example 313, (R,EZ)—N-(1-(3-Cyclopropyl-2-(trifluoromethyl)acryloyl)piperidin-3-yl)-5-(2-methyl-4-phenoxyphenyl)-4-oxo-4,5-dihydro-3H-1-thia-3,5,8-triazaacenaphthylene-2-carboxamide] | 5.9

Same assay, conditions: unphosphorylated-BTK kinase domain, 50 nM Tracer 236, 60 minutes; pIC50 = negative log of the IC50 in molar; read-out: BTK_I_binding pIC50 (converted)

Row | SMILES | IC50 [nM]
24 | O=C(N[C@H]1CNC[C@H](O)C1)c1sc2nccc3c2c1NC(=O)N3c1ccc(Oc2ccccc2)cc1 [Example 586, N-((3R,5R)-5-Hydroxypiperidin-3-yl)-4-oxo-5-(4-phenoxyphenyl)-4,5-dihydro-3H-1-thia-3,5,8-triazaacenaphthylene-2-carboxamide] | 251

Same assay, conditions: unphosphorylated-BTK kinase domain, 60 minutes incubation, 50 nM Tracer 236; pIC50 = negative log of the IC50 in molar

Row | SMILES | BTK_I_binding pIC50
25 | O=C(N[C@@H]1CCCNC1)c1sc2nccc3c2c1NC(=O)N3c1ccc(Oc2ccccc2)nc1 [Example 922, (R)-4-Oxo-5-(6-phenoxypyridin-3-yl)-N-(piperidin-3-yl)-4,5-dihydro-3H-1-thia-3,5,8-triazaacenaphthylene-2-carboxamide] | 6.3
